Test results taken from patent US20060074048A1, “Mixed esters of hyaluronic acid with retinoic and butyric acids” (priority 2002, published 2006).

How the values were obtained:
Assay type in all cases: cell-based, human
[1] = system: promyelo/monocytic cell line U937; test: Cell cycle perturbation by flow cytometry, U937; settings: U937, 3 days; mixed ester 0.1 mg/ml, BA 0.2 mM, RA 10^−5 M
Experimental: The evaluation was performed by flow cytometry (panels a, b, c) after 6 days of continuous treatment with mixed ester at 0.1 or 1 mg/ml concentrations and was compared with the effect on cell growth determined by a colorimetric method (MTT), described by the curve -●-.
The effect on cell cycle and on cell proliferation has been assessed. The assessment has been performed by flow cytometry after 3 days of treatment with the mixed ester of the invention at 0.1 mg/ml concentration, or with butyric acid or retinoic acid at concentrations of 0.2 mM and 10^−5 M, respectively. Cell cycle perturbations induced by these compounds are related to the effect on cell proliferation (ordinate axis) exerted by identical concentrations of the drugs and expressed as percentage of the control (CTR) represented by cells cultured in medium alone. […] CTR: control. Panel a): (Go=45%; S=46%), panel b): (Go=44%; S=45%); panel c) (Go=43%; S=45%); panel d): (Go=72%; S=22%); panel e) (Go=41%; S=46%), panel f): (Go=94%; S=2%).
To evaluate cell cycle alterations, cells were re-suspended in a solution containing only propidium iodide, Rnase and Nonidet P40 and the fluorescence was measured using a FACScan flow cytometer.

U937 cells = test: Expression of membrane antigens by flow cytometry (FACS), U937; settings: U937, 3 days; mixed ester 0.1 mg/ml, butyric acid 0.2 mM, retinoic acid 10^−5M
Experimental: Expression of CD44, CD11a, CD11b, CD18 antigens was measured with specific murine monoclonal antibodies and secondary anti-mouse antibodies conjugated to FITC. After immunofluorescence, cells were incubated in a solution containing propidium iodide (PI) (5 mg/ml), Rnase (10 kU/ml), and Nonidet P40 (0.005%). The fluorescence relative to PI was measured using a FACScan flow cytometer (Becton Dickinson) equipped with an argon laser at 488 nm excitation wavelength and a 610 nm filter. The fluorescence signal was collected in linear and logaritmic modes. Data were evaluated using the LYSIS II software.
To check whether the block of cell growth was accompanied by activation of differentiation, the selected experimental model consists of the U937 promyelo/monocytic cell line, in which the effect of mixed esters on a series of myelocyte/macrophage specific differentiation markers (CD11a, CD11b and CD18) has been studied. The resulting effect has been directly compared with that of the two active principles. […] The results have been compared with those obtained with butyric and retinoic acids at the same concentrations as in the mixed ester (respectively 0.2 mM and […]). Since the time of treatment was reduced to 3 days in these experiments, the effects on growth and cell cycle were also measured.
In table 2 are indicated the percentages of expression measured by FACS of some membrane antigens in U937 cells treated with the esters of the invention and with the two non-esterified active principles. For each treatment the control has been repeated and is then indicated by the respective superscript.
The evaluation was performed by flow cytometry after that the promyelo/monocytic U937 cell line was treated for 3 days with mixed ester at 0.1 mg/ml concentration, butyric acid at 0.2 mM concentration or retinoic acid at 10^−5M concentration. Human lymphocytes were used as negative control for the expression of the antigen under examination.

[2] = system: promyelo/monocytic cell line U937; test: MTT cell proliferation, U937; settings: for growth inhibition by free active principle: stated in the U937/HL-60 context
Experimental: MCF7, U937, HL-60 and HT29 cell lines were purchased from the American […] Culture Collection (Rockville, […].). MCF7 cells were grown in DMEM/F12 supplemented with 5% FBS, while U937 and HL-60 were grown in RPMI-1640 supplemented with 10% (v/v) foetal bovine serum.
Approximately 1000 cells (MCF7 and HT29) and 500 cells (U937 and HL-60) per well were used in 96-well plates and were treated as indicated in the examples. At the end of the experiment, the anti-proliferative effect was measured with 3-(4,5-dimethylthiazol-2-yl)-2,5-diphenyltetrazolium bromide (MTT). The blank value, corresponding to wells containing all the components but cells, was subtracted from the absorbance values obtained.

| SMILES | cells blocked in G0/1 (Go) phase [1] [%] | cells in S phase [1] [%] | CD11a expression (U937 cells) [%] | CD11b expression (U937 cells) [%] | CD18 expression (U937 cells) [%] | CD44 expression (U937 cells) [%] | growth inhibition by free active principle ([2]; BA 2 mM) [%] | anti-proliferative effect and cell cycle block ([2]; U937, 3 days, BA 0.2 mM, RA 10^−5 M) | growth inhibition by free active principle ([2]; RA 10^−4 M) [%] |
| --- | --- | --- | --- | --- | --- | --- | --- | --- | --- |
| CCCC(=O)O [butyric acid, Butyric Acid] | 44 | 45 | 76 | 17 | 82 | 91 | ~100 | totally ineffective | – |
| CC1=C(/C=C/C(C)=C/C=C/C(C)=C/C(=O)O)C(C)(C)CCC1 [retinoic acid, Retinoic acid] | 94 | 2 | 91 | 28 | 83 | 97 | – | – | ~100 |
